Earlier results on one compound are cited in US20160250192A1, “PRODUCTION METHOD OF PHARMACEUTICAL COMPOSITION CONTAINING CANDESARTAN CILEXETIL” (Sawai Pharmaceutical Co., Ltd., priority 2013, published 2016).

For `CCOc1nc2cccc(C(=O)OC(C)OC(=O)OC3CCCCC3)c2n1Cc1ccc(-c2ccccc2-c2nnn[nH]2)cc1` (racemic) [Candesartan cilexetil, (RS)-1-[(cyclohexyloxy)carbonyloxy]ethyl 2-ethoxy-1-{[2′-(1H-tetrazole-5-yl)-biphenyl-4-yl]methyl}-1H-benzimidazole-7-carboxylate], the solubility in water entry was “poorly soluble”.
